Where no end group is shown, it is not given here. {C12NH2} = aliphatic C12 spacer ending in a primary amine, used to couple the probe to the polymer
Columns and labels:
[1] = system: Complementary detection probe; assay: Hybridization of biotinylated detection probe to coated polypropylene microwells (SA-HRP, A655); assay type: binding; conditions: 50 fmole probe per well, n=3
Description: (§1) The DNA-polymer was applied to microplate wells (polypropylene plates from Corning Costar Corporation, Cambridge, Mass.) at 10 pmole (in 0.1 ml solution) per well and incubated for 10-30 minutes. The plates containing DNA polymer solutions were illuminated for 1.5 minutes with a Dymax lamp as described herein except that a filter was used that removes light of wavelengths shorter than 300 nm. A control consisted of oligoDNA capture probe (10 pmole in 0.1 ml 50 mM phosphate buffer, pH 8.5, 1 mM EDTA) that was added to wells, allowed to adsorb for 2.5 hr., and not illuminated. The plates were washed with phosphate buffered saline containing 0.05% Tween 20 in PBS to remove unbound DNA-polymer or control oligoDNA capture probe. […]
(§2) The binding of each detection probe was assayed by subsequently adding a conjugate of streptavidin and horseradish peroxidase (SA-HRP, available from Pierce, Rockford, Ill.) and measuring the activity of the bound HRP. […] The plates were then washed with 0.05% Tween 20 in PBS, followed by addition of peroxidase substrate (TMB Microwell Peroxidase substrate system from Kirkegarrd and Perry Laboratories, Gaithersburg, Md.) and measurement of absorbance at 655 nm on a microplate reader (model 3550, Bio-Rad Labs, Cambridge, Mass.). Since the polypropylene plates were opaque, the reacted substrate solutions were transferred to polystyrene plates to read the absorbance.

[2] = system: Noncomplementary detection probe; assay: as above; assay type: binding; conditions: 50 fmole probe per well, n=3
Description: as §1, §2

[3] = system: Escherichia coli (ATCC No. 25922); assay type: cell-based; conditions: in solution
Description: (§3) Magainin is a cationic peptide antibiotic that was originally isolated from the skin of Xenopus laevis. It is active against a broad spectrum of pathogens and acts at the surface of the pathogens. The activity of the magainin polymer was evaluated by a standard solution assay, which determined the minimum inhibitory concentration (MIC) of magainin polymer that was required to prevent the growth of bacteria.

[4] = system: Staphylococcus epidermidis (ATCC No. 12228); assay type: cell-based; conditions: in solution
Description: as §3

Substance: 5′-GTCTGAGTCGGAGCCAGGGCGGCCGCCAACAGCAGGAGCA (DNA GTCTGAGTCGGAGCCAGGGCGGCCGCCAACAGCAGGAGCA; DNA, 5' {C12NH2}, backbone not given here; coupled via 5' amine to photoreactive NOS polymer) [oligo DNA capture probe]
- Hybridization Signals (A655), Complementary detection probe [1]: 0.037 ± 0.005
- Hybridization Signals (A655), Noncomplementary detection probe [2]: 0.033 ± 0.001

Substance: magainin polymer: photoreactive polyacrylamide containing magainin ligand (SEQ ID NO:14) (GIGKFLHSAKKFGKAFVGEIMNSC; not fully specified (residue 24); printed as Gly Ile Gly Lys Phe Leu His Ser Ala Lys Lys Phe Gly Lys Ala Phe Val Gly Glu Ile Met Asn Ser Cys; also: in photoreactive polyacrylamide)
- MIC [3]: 50 µg/mL
- MIC [4]: 50 µg/mL

Reference: patent US6514734B1, “Polybifunctional reagent having a polymeric backbone and latent reactive moieties and bioactive groups” (Surmodics, Inc., priority 1997, dated 2003)
